Earlier results, collected in patent US20260020560A1, “AG[…] DIHYDROJASMONATE COMPOSITIONS” (priority 2022, published 2026).

Row | Compound | pKa at 25° C.
1 | O=S(=O)(O)CCN1CCN(CCO)CC1 [HEPES, 4-(2-hydroxyethyl)-1-piperazineethanesulfonic acid] | 7.48
2 | O=S(=O)(O)CC(O)CNC(CO)(CO)CO (centres unmarked) [TAPSO, 3-[N-tris(hydroxymethyl)methyl-amino]-2-hydroxypropanesulfonic acid] | 7.635
